Tests used:
[1] = target: T1, human recombinant kinase full-length AKT1 E17K (Homo sapiens, UniProt P31749, E17K); experiment: AKT1 E17K kinase assay (TR-FRET, Lance); assay type: biochemical; details: 0.6 nM AKT1 E17K, 50 nM Ulight-CREBtide, either 50 μM ATP or 2 mM ATP, 60 min at RT
T1 construct: Purified human recombinant kinase full-length AKT1 E17K was expressed in insect cells; made in house; host or cells: insect cells
In short: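 IC50 came from a 10-point, 4-parameter fit of the 665/620 TR-FRET ratio read with Eu-anti-phospho-CREB (Ser133). Reaction at RT for 60 min after 15 min compound preincubation, using 0.6 nM PDPK1-activated full-length AKT1 E17K (insect-cell), 50 nM Ulight-CREBtide, ATP at 50 μM or 2 mM, HEPES pH 7.5, 1% DMSO.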

[2] = target: T2, human recombinant kinase full-length wildtype AKT1 (Homo sapiens, UniProt P31749); experiment: AKT1 kinase assay (wildtype, TR-FRET, Lance); assay type: biochemical; details: 0.6 nM wildtype AKT1, 50 nM Ulight-CREBtide, either 50 μM ATP or 2 mM ATP, 60 min at RT
T2 construct: Purified human recombinant kinase full-length wildtype AKT1 was expressed in insect cells; made in house; host or cells: insect cells
In short: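 TR-FRET 665/620 ratio quantified phospho-CREBtide formed by PDPK1-activated full-length human AKT1 (0.6 nM, insect-cell-derived) over 60 min at RT with 50 nM ULight-CREBtide and either 50 μM or 2 mM ATP. Compounds were preincubated 15 min with enzyme; IC50 came from 4-parameter fits of 10-point duplicates.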

T1 sequence (P31749 whole entry E17K): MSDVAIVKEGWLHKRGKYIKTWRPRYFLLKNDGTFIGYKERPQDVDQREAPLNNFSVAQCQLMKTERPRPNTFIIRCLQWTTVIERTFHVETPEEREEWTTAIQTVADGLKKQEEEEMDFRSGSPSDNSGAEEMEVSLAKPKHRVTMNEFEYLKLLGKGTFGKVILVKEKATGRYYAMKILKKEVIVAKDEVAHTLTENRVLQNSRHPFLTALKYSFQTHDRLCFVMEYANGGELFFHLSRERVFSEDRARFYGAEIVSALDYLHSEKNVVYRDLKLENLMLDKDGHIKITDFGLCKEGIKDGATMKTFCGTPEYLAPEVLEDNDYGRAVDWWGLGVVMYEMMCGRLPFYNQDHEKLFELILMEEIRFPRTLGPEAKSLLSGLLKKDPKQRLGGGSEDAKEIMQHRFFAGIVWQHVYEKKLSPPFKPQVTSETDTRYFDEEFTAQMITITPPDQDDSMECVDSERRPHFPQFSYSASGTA
T2 sequence (P31749 whole entry): as the sequence (P31749 whole entry E17K) above, with K17E counted along it

| IC50 [1] [nM] | IC50 [2] [nM] | Structure (SMILES) |
| --- | --- | --- |
| ≥ 2000 | < 20000 | Cc1cc(C2CN(C[C@H]3CC[C@H](C(=O)O)CC3)C2)ccc1-n1c(-c2cccnc2N)nc2ccc(-c3ccccc3)cc21 [Compound I-223] |
| ≥ 2000 | < 20000 | Cc1cc(C2CN(CC3CC4(C3)CC(C(=O)O)C4)C2)ccc1-n1c(-c2cccnc2N)nc2ccc(-c3ccccc3)cc21 (centres unmarked) [Compound I-224] |
| < 500 | < 20000 | Cc1nc(NCC2CC3(C2)CC(C(=O)O)C3)ccc1-n1c(-c2cccnc2N)nc2ccc(-c3ccccc3)nc21 (centres unmarked) [Compound I-225] |
| 500 to 2000 | < 20000 | Cc1nc(NC[C@@H]2CC[C@H](C(=O)O)C2)ccc1-n1c(-c2cccnc2N)nc2ccc(-c3ccccc3)nc21 [Compound I-226] |
| 500 to 2000 | < 20000 | Cc1nc(NC[C@@H]2CC[C@@H](C(=O)O)C2)ccc1-n1c(-c2cccnc2N)nc2ccc(-c3ccccc3)nc21 [Compound I-227] |
| < 500 | < 20000 | Cc1cc2nc(-c3cccnc3N)n(-c3ccc(C4CN(C[C@H]5CC[C@@H](C(=O)O)CC5)C4)cc3)c2nc1-c1ccccc1 [Compound I-234, Cis-4-((3-(4-(2-(2-aminopyridin-3-yl)-6-methyl-5-phenyl-3H-imidazo[4,5-b]pyridin-3-yl)phenyl)azetidin-1-yl)methyl)cyclohexane-1-carboxylic acid] |
| < 500 | < 20000 | Cc1cc2nc(-c3cccnc3N)n(-c3ccc(C4CN(C[C@H]5CC[C@H](C(=O)O)CC5)C4)cc3)c2nc1-c1ccccc1 [Compound I-235, trans-4-((3-(4-(2-(2-aminopyridin-3-yl)-6-methyl-5-phenyl-3H-imidazo[4,5-b]pyridin-3-yl)phenyl)azetidin-1-yl)methyl)cyclohexane-1-carboxylic acid] |

Source: US20260200920A1, “SUBSTITUTED AMINOPYRIDINE COMPOUNDS FOR USE AS AKT1 INHIBITORS” (Atavistik Bio, Inc., priority 2023, published 2026)
